In ChEMBL document CHEMBL1201862, “PubChem BioAssay data set” (2004):
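Interpolation was linear, between the two tested concentrations surrounding the appropriate level; five concentrations were tested over 48 hours in 96-well plates. GI50 marks 50% less growth.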 Active and inactive are the calls of the source. Cut-off read from the data, not from the text of the source: active = GI50 up to about 1.1 µM and inactive = higher.

Key:
Assay in all cases: NCI-60 cell line screen, 48 h
SNB-78 = test system: SNB-78
OVCAR-8 = test system: OVCAR-8
U-251 = test system: U-251
NCI-H226 = test system: NCI-H226
RXF 393 = test system: RXF 393
LXFL 529 = test system: LXFL 529
UACC-257 = test system: UACC-257
NCI-H522 = test system: NCI-H522
SK-MEL-28 = test system: SK-MEL-28
M19-MEL = test system: M19-MEL
HOP-62 = test system: HOP-62
KM12 = test system: KM12
SK-MEL-2 = test system: SK-MEL-2
M14 = test system: M14
SR = test system: SR
ACHN = test system: ACHN
Malme-3M = test system: Malme-3M
HOP-92 = test system: HOP-92
XF498 = test system: XF498
COLO 205 = test system: COLO 205
HCC 2998 = test system: HCC 2998
CCRF-CEM = test system: CCRF-CEM
A549 = test system: A549
NCI-H23 = test system: NCI-H23
OVCAR-3 = test system: OVCAR-3
K562 = test system: K562
SF-295 = test system: SF-295
HCT-15 = test system: HCT-15
SF-268 = test system: SF-268
DMS-273 = test system: DMS-273
EKVX = test system: EKVX
A498 = test system: A498
HT-29 = test system: HT-29
SK-OV-3 = test system: SK-OV-3
DLD-1 = test system: DLD-1
786-0 = test system: 786-0
SW-620 = test system: SW-620
LOX IMVI = test system: LOX IMVI
RPMI-8226 = test system: RPMI-8226
OVCAR-4 = test system: OVCAR-4
UO-31 = test system: UO-31
OVCAR-5 = test system: OVCAR-5
SK-MEL-5 = test system: SK-MEL-5
CAKI-1 = test system: CAKI-1
IGROV-1 = test system: IGROV-1
TK-10 = test system: TK-10
SNB-19 = test system: SNB-19
MOLT-4 = test system: MOLT-4
SF-539 = test system: SF-539
UACC-62 = test system: UACC-62
SNB-75 = test system: SNB-75
HCT-116 = test system: HCT-116
KM-20L2 = test system: KM-20L2
HL-60 = test system: HL-60
SN12C = test system: SN12C
NCI-H460 = test system: NCI-H460

CC1=C(O)C(=O)C2C(=O)C1C(C)C2c1ccccc1 (configuration not stated)
GI50 (SNB-78): > 100 µM (inactive)
GI50 (OVCAR-8): > 100 µM (inactive)
GI50 (U-251): > 100 µM (inactive)
GI50 (NCI-H226): > 100 µM (inactive)
GI50 (RXF 393): > 100 µM (inactive)
GI50 (LXFL 529): > 100 µM (inactive)
GI50 (UACC-257): > 100 µM (inactive)
GI50 (NCI-H522): > 100 µM (inactive)
GI50 (SK-MEL-28): > 100 µM (inactive)
GI50 (M19-MEL): > 100 µM (inactive)
GI50 (HOP-62): > 100 µM (inactive)
GI50 (KM12): > 100 µM (inactive)
GI50 (SK-MEL-2): > 100 µM (inactive)
GI50 (M14): > 100 µM (inactive)
GI50 (SR): > 100 µM (inactive)
GI50 (ACHN): > 100 µM (inactive)
GI50 (Malme-3M): > 100 µM (inactive)
GI50 (HOP-92): > 100 µM (inactive)
GI50 (XF498): > 100 µM (inactive)
GI50 (COLO 205): > 100 µM (inactive)
GI50 (HCC 2998): > 100 µM (inactive)
GI50 (CCRF-CEM): > 100 µM (inactive)
GI50 (A549): > 100 µM (inactive)
GI50 (NCI-H23): > 100 µM (inactive)
GI50 (OVCAR-3): > 100 µM (inactive)
GI50 (K562): > 100 µM (inactive)
GI50 (SF-295): > 100 µM (inactive)
GI50 (HCT-15): > 100 µM
GI50 (SF-268): > 100 µM (inactive)
GI50 (DMS-273): > 100 µM (inactive)
GI50 (EKVX): > 100 µM (inactive)
GI50 (A498): > 100 µM (inactive)
GI50 (HT-29): > 100 µM (inactive)
GI50 (SK-OV-3): > 100 µM (inactive)
GI50 (DLD-1): > 100 µM (inactive)
GI50 (786-0): > 100 µM (inactive)
GI50 (SW-620): > 100 µM (inactive)
GI50 (LOX IMVI): > 100 µM (inactive)
GI50 (RPMI-8226): > 100 µM (inactive)
GI50 (OVCAR-4): > 100 µM (inactive)
GI50 (UO-31): > 100 µM (inactive)
GI50 (OVCAR-5): > 100 µM (inactive)
GI50 (SK-MEL-5): > 100 µM (inactive)
GI50 (CAKI-1): > 100 µM (inactive)
GI50 (IGROV-1): > 100 µM (inactive)
GI50 (TK-10): > 100 µM (inactive)
GI50 (SNB-19): > 100 µM (inactive)
GI50 (MOLT-4): > 100 µM (inactive)
GI50 (SF-539): > 100 µM (inactive)
GI50 (UACC-62): > 100 µM (inactive)
GI50 (SNB-75): > 100 µM (inactive)

COc1ccc(-c2ccccc2)c2[nH]c3c(c12)CCNC3=O
GI50 (SNB-78): > 100 µM (inactive)
GI50 (OVCAR-8): > 100 µM (inactive)
GI50 (U-251): > 100 µM (inactive)
GI50 (NCI-H226): > 100 µM (inactive)
GI50 (RXF 393): 45.6 µM (inactive)
GI50 (LXFL 529): > 100 µM (inactive)
GI50 (UACC-257): > 100 µM (inactive)
GI50 (NCI-H522): > 100 µM (inactive)
GI50 (M19-MEL): > 100 µM (inactive)
GI50 (HOP-62): > 100 µM (inactive)
GI50 (KM12): > 100 µM (inactive)
GI50 (M14): > 100 µM (inactive)
GI50 (SR): > 100 µM (inactive)
GI50 (HCT-116): > 100 µM (inactive)
GI50 (Malme-3M): > 100 µM (inactive)
GI50 (HOP-92): > 100 µM (inactive)
GI50 (COLO 205): > 100 µM (inactive)
GI50 (HCC 2998): > 100 µM (inactive)
GI50 (CCRF-CEM): > 100 µM (inactive)
GI50 (A549): > 100 µM (inactive)
GI50 (NCI-H23): > 100 µM (inactive)
GI50 (OVCAR-3): > 100 µM (inactive)
GI50 (K562): > 100 µM (inactive)
GI50 (SF-295): > 100 µM (inactive)
GI50 (HCT-15): > 100 µM
GI50 (SF-268): > 100 µM (inactive)
GI50 (DMS-273): > 100 µM (inactive)
GI50 (EKVX): > 100 µM (inactive)
GI50 (A498): > 100 µM (inactive)
GI50 (HT-29): > 100 µM (inactive)
GI50 (DLD-1): > 100 µM (inactive)
GI50 (786-0): > 100 µM (inactive)
GI50 (KM-20L2): > 100 µM (inactive)
GI50 (SW-620): > 100 µM (inactive)
GI50 (HL-60): > 100 µM (inactive)
GI50 (LOX IMVI): > 100 µM (inactive)
GI50 (RPMI-8226): > 100 µM (inactive)
GI50 (OVCAR-4): > 100 µM (inactive)
GI50 (UO-31): > 100 µM (inactive)
GI50 (OVCAR-5): > 100 µM (inactive)
GI50 (SK-MEL-5): > 100 µM (inactive)
GI50 (CAKI-1): > 100 µM (inactive)
GI50 (IGROV-1): > 100 µM (inactive)
GI50 (TK-10): > 100 µM (inactive)
GI50 (SNB-19): > 100 µM (inactive)
GI50 (MOLT-4): > 100 µM (inactive)
GI50 (SN12C): > 100 µM (inactive)
GI50 (NCI-H460): > 100 µM (inactive)
GI50 (SF-539): > 100 µM (inactive)
GI50 (UACC-62): > 100 µM (inactive)
GI50 (SNB-75): > 100 µM (inactive)
